Data taken from US8278320B2, “Azabicyclo[2.2.1]heptane compounds as alpha-7 nicotinic acetylcholine receptor ligands” (Bristol-Myers Squibb Company, priority 2009, dated 2012).
Like-named read-outs stand apart in the source and are kept apart here.

Assays:
[1] = biological target: T1, α-7 nicotinic ACh receptor ion channel expressed in mammalian HEK 293 cells (Rattus norvegicus, UniProt Q05941); test: Ca2+-sensitive, fluorescence-based FLIPR assay for α-7 nicotinic acetylcholine receptor channel function (agonist activity); type: cell-based
Method: I) α7 Nicotinic Acetycholine Receptor Binding. Membranes were prepared for binding using HEK293 cells stably expressing the rat α7 nicotinic acetycholine receptor (rat α7 nAChR). Cells were homogenized at 4° C. in hypotonic lysis buffer consisting of 10 mM Tris (pH 7.4), 5 mM EDTA and protease inhibitors and centrifuged at 32000×g for 20 minutes. The pellet was washed once in membrane wash buffer consisting of 50 mM Tris (pH 7.4), 1 mM EDTA and protease inhibitors and centrifuged at 32000×g for 20 minutes. This pellet was then resuspended in assay buffer consisting 50 mM KH2PO4 (pH 7.4 at 25° C.), 1 mM EDTA, 0.005% Triton-X 100 and 0.1% (v/v) Sigma Protease Inhibitor Cocktail. Aliquots were then frozen in dry ice/ethanol and kept at −80° C. until the day of the assay. II) A Ca^2+-Sensitive, Fluorescence-Based Assay α-7 for Nicotinic Acetylcholine Receptor Channel Function In Mammalian Cells (“FLIPR”). Summary: Lead compounds are evaluated for agonist activity at α-7, α3β4, α4αβ2, and α1β1δ1ε sub-types of nicotinic ACh receptor ion channels expressed in mammalian HEK 293 cells. Agonist potency and efficacy values are determined from kinetic fluorescence Ca^2+ influx measurements made using a 384 well FLIPR (Fluorescence Image Plate Reader). […] The basal fluorescence from the cells is monitored in real time, followed by the acute addition of test compounds. […]
Target sequence in this assay (Q05941 23-502 limits assumed): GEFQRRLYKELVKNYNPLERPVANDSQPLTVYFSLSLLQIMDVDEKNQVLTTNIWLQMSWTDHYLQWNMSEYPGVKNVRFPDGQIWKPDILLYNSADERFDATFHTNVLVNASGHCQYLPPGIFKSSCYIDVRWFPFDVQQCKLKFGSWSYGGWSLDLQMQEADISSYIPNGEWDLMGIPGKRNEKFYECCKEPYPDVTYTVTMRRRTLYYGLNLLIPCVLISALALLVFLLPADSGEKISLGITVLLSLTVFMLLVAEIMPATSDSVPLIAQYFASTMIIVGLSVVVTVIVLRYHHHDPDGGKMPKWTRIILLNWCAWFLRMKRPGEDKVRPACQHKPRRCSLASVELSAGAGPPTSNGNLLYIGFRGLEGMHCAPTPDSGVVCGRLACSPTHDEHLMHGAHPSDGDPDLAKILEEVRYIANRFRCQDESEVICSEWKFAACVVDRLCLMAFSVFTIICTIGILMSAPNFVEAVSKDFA

[2] = biological target: T1, α-7 nicotinic ACh receptor ion channel expressed in mammalian HEK 293 cells; test: as above; type: cell-based; design: expressed in transfected cells; conditions: Ca2+ flux, HEK-293 cells, Fluo-4
Method: I) α7 Nicotinic Acetycholine Receptor Binding. Membranes were prepared for binding using HEK293 cells stably expressing the rat α7 nicotinic acetycholine receptor (rat α7 nAChR). Cells were homogenized at 4° C. in hypotonic lysis buffer consisting of 10 mM Tris (pH 7.4), 5 mM EDTA and protease inhibitors and centrifuged at 32000×g for 20 minutes. The pellet was washed once in membrane wash buffer consisting of 50 mM Tris (pH 7.4), 1 mM EDTA and protease inhibitors and centrifuged at 32000×g for 20 minutes. This pellet was then resuspended in assay buffer consisting 50 mM KH2PO4 (pH 7.4 at 25° C.), 1 mM EDTA, 0.005% Triton-X 100 and 0.1% (v/v) Sigma Protease Inhibitor Cocktail. Aliquots were then frozen in dry ice/ethanol and kept at −80° C. until the day of the assay. II) A Ca^2+-Sensitive, Fluorescence-Based Assay α-7 for Nicotinic Acetylcholine Receptor Channel Function In Mammalian Cells (“FLIPR”). Summary: Lead compounds are evaluated for agonist activity at α-7, α3β4, α4αβ2, and α1β1δ1ε sub-types of nicotinic ACh receptor ion channels expressed in mammalian HEK 293 cells. Agonist potency and efficacy values are determined from kinetic fluorescence Ca^2+ influx measurements made using a 384 well FLIPR (Fluorescence Image Plate Reader). […] In this assay, channel expressing HEK cell lines seeded in 384 well assay plates are loaded with a membrane permeant fluorescent Ca^2+ indicator dye, whose 510 nm green emission signal increases in response to elevation of intracellular Ca^2+ concentration. The basal fluorescence from the cells is monitored in real time, followed by the acute addition of test compounds.
Materials and Methods: Reagents: The acetomethoxy (AM) ester of the Ca^2+ indicator dye Fluo-4 was obtained from InVitrogen, (Carlsbad, Calif.). Acetylcholine and all buffer constituents were purchased from Sigma Chemical Company, St. Louis, Mo. G418 and Minimal Essential Medium were purchased from InVitrogen Life Technologies, Carlsbad, Calif. Fetal bovine serum was purchased from (InVitrogen, Carlsbad, Calif.).
Cell Culture: HEK-293 cells were grown in Minimal Essential Medium containing 10% (v/v) fetal bovine serum at 37° C. in a 5% CO2 incubator. HEK-293 cells stably expressing the ion channels were grown in the same medium with the addition of 500 μg/ml G418.
Ca^2+ flux assays of Ca^2+ channels expressed in HEK-293 cells: HEK-293 cells expressing the ion channels of interest were plated in 384 well, black-walled, clear-bottomed, poly-D-lysine coated plates at a density of ˜20,000 cells/well in 20 μl of Minimal Essential Medium containing 10% (v/v) fetal bovine serum and incubated for 2 days at 29° C. in a 5% CO2 incubator. Prior to assay, cells were loaded with the Fluo-4 AM ester. […] Dye loading was allowed to proceed for 90 minutes at room temperature at which time the dye loading solution was removed and replaced with 40 μl/well of Hanks buffer. Cells loaded with dye were loaded onto a FLIPR384 (Molecular Devices, Sunnyvale, Calif.). Fluo-4 dye was excited using the 488 nm line of an argon laser. Emission was filtered using a 540+/−30 nm bandpass filter. For evaluation of the effects of test compounds using the Ca^2+ flux assay, compounds to be tested were provided in assay ready plates. For nicotinic receptor ion channel expressing cells, the assay was initiated by the addition of 20 μl/well of Hanks buffer containing test compounds. For all assays, data were collected at 1 Hz for 10 seconds (baseline), at which time the compound containing stimulus buffers are added, and further measurements collected at 0.33 Hz for 3 min.
Data Analysis: The statistical robustness of the nicotinic receptor Ca^2+ flux assays is determined from blanks and totals wells. […] The raw fluorescence units data files generated on the FLIPR plate reader are automatically exported and processed by in-house data analysis tools.
Target sequence in this assay (Q05941 23-502): as the sequence (Q05941 23-502 limits assumed) above

[3] = FLIPR α7 activity rating (EC50, nM), agonist potency class
[4] = agonist potency class, read-out: FLIPR α7 activity rating (EC50)

Row | Compound | EC50 [2, 3] | EC50 [2, 4] | other results
1 | c1ccc2sc(NC3=NC[C@@]4(CN5CC[C@@H]4C5)O3)nc2c1 | – | – | EC50 [1]: < 100 nM
2 | Cc1cn(-c2cc(NC3=NC[C@@]4(C[N@@]5CC[C@@H]4C5)O3)ncn2)cn1 [Example 22, (3R,4R)—N-(6-(4-Methyl-1H-imidazol-1-yl)pyrimidin-4-yl)-4′H-1-azaspiro[bicyclo[2.2.1]heptane-3,5′-oxazol]-2′-amine] | 100 to 1000 nM | – | –
3 | COc1c(NC2=NC[C@@]3(C[N@@]4CC[C@@H]3C4)O2)ncnc1N1CCCC1 [Example 23, (3R,4R)—N-(5-Methoxy-6-(pyrrolidin-1-yl)pyrimidin-4-yl)-4′H-1-azaspiro[bicyclo[2.2.1]heptane-3,5′-oxazol]-2′-amine] | – | < 100 nM | –
4 | c1ccc2nc(NC3=NC[C@@]4(C[N@@]5CC[C@@H]4C5)O3)nnc2c1 [Example 24, (3R,4R)—N-(Benzo[e][1,2,4]triazin-3-yl)-4′H-1-azaspiro[bicyclo[2.2.1]heptane-3,5′-oxazol]-2′-amine] | – | < 100 nM | –
5 | Clc1ccc2oc(NC3=NC[C@@]4(C[N@@]5CC[C@@H]4C5)O3)nc2c1 [Example 25, (3R,4R)—N-(5-Chlorobenzo[d]oxazol-2-yl)-4′H-1-azaspiro[bicyclo[2.2.1]heptane-3,5′-oxazol]-2′-amine] | – | < 100 nM | –
6 | c1nc(NC2=NC[C@@]3(C[N@@]4CC[C@@H]3C4)O2)c2sccc2n1 [Example 27, (3R,4R)—N-(Thieno[3,2-d]pyrimidin-4-yl)-4′H-1-azaspiro[bicyclo[2.2.1]heptane-3,5′-oxazol]-2′-amine] | 100 to 1000 nM | – | –
7 | Cc1csc2c(NC3=NC[C@@]4(C[N@@]5CC[C@@H]4C5)O3)ncnc12 [Example 28, (3R,4R)—N-(7-Methylthieno[3,2-d]pyrimidin-4-yl)-4′H-1-azaspiro[bicyclo[2.2.1]heptane-3,5′-oxazol]-2′-amine] | 100 to 1000 nM | – | EC50 ([2]; FLIPR α7-HI (EC50, nM), agonist potency): 222 nM
8 | Cc1ccc2nc(NC3=NC[C@@]4(C[N@@]5CC[C@@H]4C5)O3)oc2c1 [Example 29, (3R,4R)—N-(6-Methylbenzo[d]oxazol-2-yl)-4′H-1-azaspiro[bicyclo[2.2.1]heptane-3,5′-oxazol]-2′-amine] | – | < 100 nM | –
